From PubChem BioAssay AID1918946 (Molecular Pharmacology Branch, DTP, NCI, 2023)

Tested on: 885512-296-R-J2-PDC complex spheroid viability
Assay: Anticancer human tumor 885512-296-R-J2-PDC patient-derived breast carcinoma cell line growth inhibition
Conditions: for IC50: curve of first compound; for viability, T/C: stronger effect = lower value
Outline: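 Multicellular complex spheroids of tumor cells with human endothelial cells (HUVEC) and mesenchymal stem cells; the LSD1 inhibitor iadademstat was combined with standard-of-care or investigational agents. Top concentration at or near clinical Cmax, half-log dilutions; final DMSO ≤0.25%.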
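Further: spheroids exposed to agents for 7 days before viability read.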

CC1COCCN1c1cc(-c2ccnn2C)c2ccnc(-c3ccn[nH]3)c2n1 (stereo not given) + NC1CC1c1ccc(-c2cccc(O)c2)cc1
IC50 (second compound 0.1 µM): < 3.16 nM
IC50 (second compound 0.316 µM): < 3.16 nM
IC50 (second compound 1 µM): < 3.16 nM
IC50 (second compound 3.16 µM): < 3.16 nM
IC50 (second compound 10 µM): < 3.16 nM
viability, T/C (second compound 0.1 µM, first compound 0.00316 µM): 3.29%
viability, T/C (second compound 0.1 µM, first compound 0.01 µM): 2.63%
viability, T/C (second compound 0.1 µM, first compound 0.0316 µM): 2.05%
viability, T/C (second compound 0.1 µM, first compound 0.1 µM): 1.94%
viability, T/C (second compound 0.1 µM, first compound 0.316 µM): 2.98%
viability, T/C (second compound 0.1 µM, first compound 1 µM): 3.66%
viability, T/C (second compound 0.316 µM, first compound 0.00316 µM): 4.19%
viability, T/C (second compound 0.316 µM, first compound 0.01 µM): 3.06%
viability, T/C (second compound 0.316 µM, first compound 0.0316 µM): 2.44%
viability, T/C (second compound 0.316 µM, first compound 0.1 µM): 2%
viability, T/C (second compound 0.316 µM, first compound 0.316 µM): 3.18%
viability, T/C (second compound 0.316 µM, first compound 1 µM): 4.22%
viability, T/C (second compound 1 µM, first compound 0.00316 µM): 3.96%
viability, T/C (second compound 1 µM, first compound 0.01 µM): 3.23%
viability, T/C (second compound 1 µM, first compound 0.0316 µM): 2.3%
viability, T/C (second compound 1 µM, first compound 0.1 µM): 2.21%
viability, T/C (second compound 1 µM, first compound 0.316 µM): 3.06%
viability, T/C (second compound 1 µM, first compound 1 µM): 4.25%
viability, T/C (second compound 3.16 µM, first compound 0.00316 µM): 2.66%
viability, T/C (second compound 3.16 µM, first compound 0.01 µM): 2.58%
viability, T/C (second compound 3.16 µM, first compound 0.0316 µM): 1.89%
viability, T/C (second compound 3.16 µM, first compound 0.1 µM): 2.1%
viability, T/C (second compound 3.16 µM, first compound 0.316 µM): 2.93%
viability, T/C (second compound 3.16 µM, first compound 1 µM): 4.29%
viability, T/C (second compound 10 µM, first compound 0.00316 µM): 3.44%
viability, T/C (second compound 10 µM, first compound 0.01 µM): 2.73%
viability, T/C (second compound 10 µM, first compound 0.0316 µM): 1.93%
viability, T/C (second compound 10 µM, first compound 0.1 µM): 2.12%
viability, T/C (second compound 10 µM, first compound 0.316 µM): 2.49%
viability, T/C (second compound 10 µM, first compound 1 µM): 4.01%
